The values below come from ChEMBL document CHEMBL4196234, “Deciphering Binding Interactions of IL-23R with HDX-MS: Mapping Protein and Macrocyclic Dodecapeptide Ligands” (ACS Med Chem Lett, 2018).

Each structure is given as a SMILES string.

In test [1] the target is T1, Interleukin-23 receptor (Homo sapiens, UniProt Q5VWK5).
T1 sequence (Q5VWK5 whole entry): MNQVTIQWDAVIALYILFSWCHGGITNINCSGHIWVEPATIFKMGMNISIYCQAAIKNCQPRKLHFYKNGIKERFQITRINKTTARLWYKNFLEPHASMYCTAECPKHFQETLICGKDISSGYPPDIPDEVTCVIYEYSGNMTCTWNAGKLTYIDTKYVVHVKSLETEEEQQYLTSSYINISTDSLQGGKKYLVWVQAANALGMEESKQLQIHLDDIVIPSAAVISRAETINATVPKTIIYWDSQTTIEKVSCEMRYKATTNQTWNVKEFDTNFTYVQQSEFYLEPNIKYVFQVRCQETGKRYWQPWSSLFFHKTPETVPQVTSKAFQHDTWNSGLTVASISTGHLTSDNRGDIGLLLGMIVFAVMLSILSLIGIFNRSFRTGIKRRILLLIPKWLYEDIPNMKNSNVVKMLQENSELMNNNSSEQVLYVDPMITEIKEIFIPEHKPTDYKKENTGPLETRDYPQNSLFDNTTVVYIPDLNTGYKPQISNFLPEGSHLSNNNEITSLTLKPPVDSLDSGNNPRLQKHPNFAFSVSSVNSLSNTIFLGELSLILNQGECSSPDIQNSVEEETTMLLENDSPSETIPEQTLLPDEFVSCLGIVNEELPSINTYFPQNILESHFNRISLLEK
Nature of the test: Binding affinity to recombinant human flag/His-tagged IL-23R (1 to 353 residues) expressed in HEK293F cells measured over 90 secs by surface plasmon resonance assay.

Test [2] concerns the target T1, Interleukin-23 receptor. Nature of the test: Binding affinity to recombinant human flag/His-tagged IL-23R (1 to 353 residues) expressed in HEK293F cells assessed as disruption of biotinylated IL-23 binding to receptor preincubated for 1 hr followed by biotinylated IL-23 addition measured after over night incubation by AlphaLISA assay. Type of test: cell-based. (Bead proximity is the source of the signal in Alpha formats.)

The target of test [3] is T1, Interleukin-23 receptor. Nature of the test: Binding affinity to recombinant human flag/His-tagged IL-23R (1 to 353 residues) expressed in HEK293F cells assessed as dissociation rate constant measured over 90 secs by surface plasmon resonance assay. In general terms: SPR reads the build-up and loss of mass on a sensor chip optically.
The target of test [4] is T2, Interleukin-23 receptor (Homo sapiens) (UniProt Q5VWK5).
T2 sequence (whole entry): T1 sequence (Q5VWK5 whole entry)
Nature of the test: Binding affinity to recombinant human flag/His-tagged IL-23R (1 to 353 residues) expressed in HEK293F cells assessed as association rate constant measured over 90 secs by surface plasmon resonance assay.

Test [5] deals with T1, Interleukin-23 receptor. Nature of the test: Binding affinity to recombinant human flag/His-tagged IL-23R (1 to 353 residues) expressed in HEK293F cells assessed as disruption of biotinylated IL-23 binding to receptor preincubated for 1 hr followed by biotinylated IL-23 addition measured after 1 hr by TR-FRET assay. It counts as cell-based. (In general: In TR-FRET formats the signal depends on donor and acceptor labels being close together.)

Broadly, the IC50 is the concentration that inhibits the measured activity by half. Turning to `CC(=O)N[C@H]1CCSC[C@@H](C(=O)N[C@@H](Cc2ccc(OCCN)cc2)C(=O)N[C@@H](Cc2c[nH]c3ccccc23)C(=O)N[C@@](C)(CCCCN)C(=O)N[C@@H](CCC(=O)O)C(=O)N[C@@H](CC(N)=O)C(=O)NCC(N)=O)NC(=O)[C@H](CCC(N)=O)NC(=O)[C@H](Cc2c[nH]c3ccccc23)NC(=O)[C@H]([C@@H](C)O)NC(=O)[C@H](CCC(N)=O)NC1=O`, the values for the Kd on Interleukin-23 receptor [1] and at Interleukin-23 receptor [3] were 1.81 to 2 nM and 2.74 ×10⁻² (1/s), respectively. Besides, the IC50 on Interleukin-23 receptor [2] came out at 2.7 nM; on Interleukin-23 receptor [5], 5.1 nM. In addition, in test [4], the Ka was 1.51 ×10⁷ (1/Ms).
